Assay results as given in ChEMBL document CHEMBL5465560, “Selectivity Literature for EUbOPEN Chemogenomic Library” (2024).

Key:
[1] = tested on: T1, Receptor-type tyrosine-protein kinase FLT3 (Homo sapiens), P36888 [N841I]; conditions: at 10 µM
T1 sequence (whole entry): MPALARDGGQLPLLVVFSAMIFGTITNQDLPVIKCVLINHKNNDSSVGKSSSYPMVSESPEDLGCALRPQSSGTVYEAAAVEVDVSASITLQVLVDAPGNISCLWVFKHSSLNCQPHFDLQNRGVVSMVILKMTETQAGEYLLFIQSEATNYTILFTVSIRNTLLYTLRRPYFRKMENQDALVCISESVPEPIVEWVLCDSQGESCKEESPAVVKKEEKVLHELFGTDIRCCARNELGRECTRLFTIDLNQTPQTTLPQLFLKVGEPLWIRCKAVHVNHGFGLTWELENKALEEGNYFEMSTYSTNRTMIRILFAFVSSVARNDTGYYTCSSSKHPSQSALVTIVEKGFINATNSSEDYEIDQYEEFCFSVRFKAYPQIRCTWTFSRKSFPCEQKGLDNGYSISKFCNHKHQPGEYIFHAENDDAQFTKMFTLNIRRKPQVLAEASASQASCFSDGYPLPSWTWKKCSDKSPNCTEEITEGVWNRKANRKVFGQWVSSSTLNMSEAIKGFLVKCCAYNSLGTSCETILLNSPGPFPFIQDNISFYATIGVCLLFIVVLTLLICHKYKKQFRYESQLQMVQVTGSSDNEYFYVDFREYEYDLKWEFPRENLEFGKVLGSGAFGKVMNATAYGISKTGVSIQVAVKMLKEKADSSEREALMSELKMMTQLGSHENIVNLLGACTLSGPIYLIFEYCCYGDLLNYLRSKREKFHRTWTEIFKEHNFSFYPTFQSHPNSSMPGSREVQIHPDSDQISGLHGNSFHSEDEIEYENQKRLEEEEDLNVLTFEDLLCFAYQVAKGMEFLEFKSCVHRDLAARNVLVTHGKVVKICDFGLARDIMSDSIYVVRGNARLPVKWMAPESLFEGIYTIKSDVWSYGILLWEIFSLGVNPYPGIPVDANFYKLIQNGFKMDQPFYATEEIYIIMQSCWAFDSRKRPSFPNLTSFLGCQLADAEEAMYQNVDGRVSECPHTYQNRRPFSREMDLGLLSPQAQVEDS

[2] = biological target: Serine/threonine-protein kinase 38-like (Homo sapiens) (UniProt Q9Y2H1); assay: Selectivity interaction (KinomeScan (DiscoverX)) EUB0000655a STK38L; conditions: at 10 µM
Sequence of Serine/threonine-protein kinase 38-like (Homo sapiens) (Q9Y2H1 2-464 limits assumed): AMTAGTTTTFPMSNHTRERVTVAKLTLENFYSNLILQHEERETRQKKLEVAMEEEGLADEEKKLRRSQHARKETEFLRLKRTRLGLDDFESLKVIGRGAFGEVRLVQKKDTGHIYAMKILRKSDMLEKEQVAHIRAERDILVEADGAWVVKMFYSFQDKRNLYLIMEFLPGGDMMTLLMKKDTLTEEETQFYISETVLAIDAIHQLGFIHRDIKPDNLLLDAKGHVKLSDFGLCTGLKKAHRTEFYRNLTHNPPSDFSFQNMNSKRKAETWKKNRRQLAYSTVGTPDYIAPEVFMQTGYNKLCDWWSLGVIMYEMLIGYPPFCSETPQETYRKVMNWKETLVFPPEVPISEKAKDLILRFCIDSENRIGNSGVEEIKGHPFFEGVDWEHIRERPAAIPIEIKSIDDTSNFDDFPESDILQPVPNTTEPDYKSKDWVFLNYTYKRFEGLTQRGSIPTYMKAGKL

[3] = biological target: Serine/threonine-protein kinase 32A (Homo sapiens) (UniProt Q8WU08); assay: Selectivity interaction (KinomeScan (DiscoverX)) EUB0000595a STK32A; conditions: at 10 µM
Sequence of Serine/threonine-protein kinase 32A (Homo sapiens) (Q8WU08 whole entry): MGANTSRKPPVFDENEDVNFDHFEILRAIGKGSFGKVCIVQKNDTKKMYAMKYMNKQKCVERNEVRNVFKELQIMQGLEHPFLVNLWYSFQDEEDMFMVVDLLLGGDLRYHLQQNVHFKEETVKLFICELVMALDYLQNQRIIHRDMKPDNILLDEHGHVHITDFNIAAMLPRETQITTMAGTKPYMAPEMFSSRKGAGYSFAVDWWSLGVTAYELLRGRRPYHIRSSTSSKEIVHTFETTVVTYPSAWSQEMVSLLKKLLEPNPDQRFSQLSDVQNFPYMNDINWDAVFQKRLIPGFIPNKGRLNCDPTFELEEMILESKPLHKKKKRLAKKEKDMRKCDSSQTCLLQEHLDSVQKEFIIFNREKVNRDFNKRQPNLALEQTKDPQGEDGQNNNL

[4] = biological target: CDK17/Cyclin-Y (Homo sapiens) (UniProt Q00537+Q8ND76); assay: Selectivity interaction (Kinase panel (Z-LYTE Assay)) EUB0001632a CDK17; type: protein-complex assay; conditions: at 10 µM
Sequence of CDK17/Cyclin-Y (Homo sapiens) (Q00537 whole entry): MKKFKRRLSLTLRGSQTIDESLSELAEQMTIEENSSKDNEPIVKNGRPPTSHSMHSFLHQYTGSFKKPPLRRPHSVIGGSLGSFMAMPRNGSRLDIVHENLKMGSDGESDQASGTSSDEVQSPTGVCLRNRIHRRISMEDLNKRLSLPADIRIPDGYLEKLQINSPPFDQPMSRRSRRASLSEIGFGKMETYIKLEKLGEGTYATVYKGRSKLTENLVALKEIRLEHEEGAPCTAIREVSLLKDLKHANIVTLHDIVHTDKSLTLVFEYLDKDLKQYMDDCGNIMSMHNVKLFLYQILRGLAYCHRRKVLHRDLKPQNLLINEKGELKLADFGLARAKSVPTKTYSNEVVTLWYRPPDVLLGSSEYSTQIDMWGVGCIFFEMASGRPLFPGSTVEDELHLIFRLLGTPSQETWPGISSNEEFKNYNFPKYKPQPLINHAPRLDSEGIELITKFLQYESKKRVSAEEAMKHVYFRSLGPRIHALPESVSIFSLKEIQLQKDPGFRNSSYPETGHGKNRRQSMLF
Sequence of CDK17/Cyclin-Y (Homo sapiens) (Q8ND76 2-341 partner limits assumed): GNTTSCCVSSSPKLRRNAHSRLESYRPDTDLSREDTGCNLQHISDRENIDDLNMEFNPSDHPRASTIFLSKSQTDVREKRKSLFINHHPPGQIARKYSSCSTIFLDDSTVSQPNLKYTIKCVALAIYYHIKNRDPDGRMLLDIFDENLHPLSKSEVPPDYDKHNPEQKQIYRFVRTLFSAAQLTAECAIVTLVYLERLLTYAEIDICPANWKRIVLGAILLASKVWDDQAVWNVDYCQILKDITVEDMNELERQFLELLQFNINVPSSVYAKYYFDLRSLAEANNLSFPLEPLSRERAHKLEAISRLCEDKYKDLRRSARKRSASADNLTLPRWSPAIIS

[5] = biological target: Non-receptor tyrosine-protein kinase TYK2 (Homo sapiens, UniProt P29597); assay: Selectivity interaction (KinomeScan (DiscoverX)) EUB0000695a TYK2; conditions: at 100 nM
Sequence of Non-receptor tyrosine-protein kinase TYK2 (P29597 whole entry): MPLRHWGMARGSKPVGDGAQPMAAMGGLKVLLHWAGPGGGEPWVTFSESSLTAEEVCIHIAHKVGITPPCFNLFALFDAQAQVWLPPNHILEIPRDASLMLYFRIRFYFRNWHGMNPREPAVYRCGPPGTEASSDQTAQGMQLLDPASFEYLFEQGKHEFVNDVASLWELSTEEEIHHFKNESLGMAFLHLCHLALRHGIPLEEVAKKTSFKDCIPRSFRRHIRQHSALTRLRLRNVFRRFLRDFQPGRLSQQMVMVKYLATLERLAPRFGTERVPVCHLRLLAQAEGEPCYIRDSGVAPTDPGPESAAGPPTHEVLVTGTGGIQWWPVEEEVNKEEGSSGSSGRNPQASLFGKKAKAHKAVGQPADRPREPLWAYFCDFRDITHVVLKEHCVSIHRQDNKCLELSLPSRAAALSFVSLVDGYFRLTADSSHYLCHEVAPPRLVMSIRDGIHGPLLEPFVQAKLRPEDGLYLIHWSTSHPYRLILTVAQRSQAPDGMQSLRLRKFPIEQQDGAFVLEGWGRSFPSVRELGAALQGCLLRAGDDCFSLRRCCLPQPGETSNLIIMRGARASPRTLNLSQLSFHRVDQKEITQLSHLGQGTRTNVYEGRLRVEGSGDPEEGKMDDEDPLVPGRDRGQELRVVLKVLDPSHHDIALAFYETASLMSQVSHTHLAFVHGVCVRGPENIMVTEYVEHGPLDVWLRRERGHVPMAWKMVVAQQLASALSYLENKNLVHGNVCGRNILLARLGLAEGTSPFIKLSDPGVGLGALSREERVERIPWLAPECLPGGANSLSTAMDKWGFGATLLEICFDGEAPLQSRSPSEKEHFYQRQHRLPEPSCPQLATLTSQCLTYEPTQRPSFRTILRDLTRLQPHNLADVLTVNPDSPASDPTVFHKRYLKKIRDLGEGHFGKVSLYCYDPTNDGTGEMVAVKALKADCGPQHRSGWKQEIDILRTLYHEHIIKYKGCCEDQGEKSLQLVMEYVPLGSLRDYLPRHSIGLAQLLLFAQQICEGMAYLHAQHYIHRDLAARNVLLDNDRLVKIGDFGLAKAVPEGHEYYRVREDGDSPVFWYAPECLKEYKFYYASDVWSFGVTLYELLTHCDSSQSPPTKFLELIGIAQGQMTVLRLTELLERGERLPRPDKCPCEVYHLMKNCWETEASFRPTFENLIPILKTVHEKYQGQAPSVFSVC

[6] = biological target: T2, Serine/threonine-protein kinase ULK1 (Homo sapiens) (UniProt O75385); assay: Selectivity interaction (KinomeScan (DiscoverX)) EUB0000695a ULK1; conditions: at 100 nM
T2 sequence (whole entry): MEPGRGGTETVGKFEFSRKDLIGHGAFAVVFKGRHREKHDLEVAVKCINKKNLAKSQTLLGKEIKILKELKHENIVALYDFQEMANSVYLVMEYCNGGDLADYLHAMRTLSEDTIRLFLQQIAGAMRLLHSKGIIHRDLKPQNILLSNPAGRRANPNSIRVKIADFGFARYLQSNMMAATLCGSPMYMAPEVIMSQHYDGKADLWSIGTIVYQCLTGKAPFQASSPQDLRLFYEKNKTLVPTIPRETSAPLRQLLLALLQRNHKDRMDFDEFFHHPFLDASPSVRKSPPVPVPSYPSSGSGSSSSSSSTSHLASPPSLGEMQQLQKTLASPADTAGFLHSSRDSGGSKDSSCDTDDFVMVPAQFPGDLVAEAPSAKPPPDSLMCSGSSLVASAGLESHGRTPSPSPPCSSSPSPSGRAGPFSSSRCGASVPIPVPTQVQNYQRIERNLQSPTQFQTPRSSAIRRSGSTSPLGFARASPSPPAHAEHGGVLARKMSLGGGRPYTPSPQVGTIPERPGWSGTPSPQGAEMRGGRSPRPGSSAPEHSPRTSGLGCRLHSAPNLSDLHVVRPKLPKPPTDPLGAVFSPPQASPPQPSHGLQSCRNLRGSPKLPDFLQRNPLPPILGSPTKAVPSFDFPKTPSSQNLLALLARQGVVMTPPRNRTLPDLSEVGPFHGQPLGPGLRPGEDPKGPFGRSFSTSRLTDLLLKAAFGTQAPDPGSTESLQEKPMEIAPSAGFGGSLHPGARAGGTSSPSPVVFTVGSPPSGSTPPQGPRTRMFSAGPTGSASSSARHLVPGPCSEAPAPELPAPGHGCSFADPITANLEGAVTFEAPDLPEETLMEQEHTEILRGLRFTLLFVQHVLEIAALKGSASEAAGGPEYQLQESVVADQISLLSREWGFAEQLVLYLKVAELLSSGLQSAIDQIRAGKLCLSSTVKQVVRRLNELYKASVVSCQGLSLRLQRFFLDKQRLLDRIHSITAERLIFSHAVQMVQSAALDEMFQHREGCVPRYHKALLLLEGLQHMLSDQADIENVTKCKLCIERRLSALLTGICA

Question: With `CCN(CC)CCCCNc1ncc2cc(-c3cc(OC)cc(OC)c3)c(NC(=O)NC(C)(C)C)nc2n1` as the molecule, how does the % of control [1] read?
Answer: 100%

Question: `CN(C)CCOc1ccc(-c2nc(-c3ccncc3)c(-c3ccc4c(c3)CC/C4=N\O)[nH]2)cc1` was tested. Which % of control [2] did it give?
Answer: 100%

Question: Which % of control [3] does the source give for `COCC(=O)NC/C=C/c1ccc2ncnc(Nc3ccc(Oc4ccc(C)nc4)c(C)c3)c2c1` [CP-724714] here?
Answer: 100%

Question: With `Cn1cc(-n2cnc3c(NCc4nc5cc(Cl)c(Cl)cc5[nH]4)nc(N4CCOCC4)nc32)cn1` as the molecule, how does the % of control [4] read?
Answer: 8.66%

Question: Which % of control [5] does the source give for `Cc1cc(F)c(C(=O)Nc2cccc(-c3nncn3C(C)C)n2)cc1-n1cnc(C2CC2)c1` here?
Answer: 73%

Question: And the % of control [6]?
Answer: 100%
